Data: PubChem BioAssay AID1745844 (Carcinogenic Potency Database (CPDB), 2022)

Test system: rodent lifetime carcinogenesis bioassay, tumor incidence TD50
Experiment: chronic cancer bioassays in animals – CPDB, compiled studies (AID 1745844)
Conditions: by gavage

How did the TD50 (mouse, strain B6C3F1, females, site: Harderian gland, lesion: adenoma + adenoma, bilateral, dosed 88 weeks, study length 104 weeks) turn out when ClCC(Cl)CCl was run?
The TD50 was 7.05 mg/kg/day.

What about the TD50 (mouse, strain B6C3F1, females, site: all sites, lesion: histiocytic sarcoma + malignant lymphoma, histiocytic type + malignant lymphoma, mixed type + malignant lymphoma, lymphocytic, dosed 88 weeks, study length 104 weeks) of the same compound?
The TD50 was 8.64 mg/kg/day.

And the TD50 (mouse, strain B6C3F1, females, site: all sites, lesion: malignant lymphoma, histiocytic type + malignant lymphoma, mixed type + malignant lymphoma, lymphocytic type + malignant lymph, dosed 88 weeks, study length 104 weeks)?
The TD50 was 7.08 mg/kg/day.

And the TD50 (mouse, strain B6C3F1, females, site: any site (literature study), lesion: several types, types named in the paper, dosed 88 weeks, study length 104 weeks)?
The TD50 was 0.806 mg/kg/day.

What about the TD50 (mouse, strain B6C3F1, females, site: forestomach + Harderian gland + liver + palate + pharynx + uterus, lesion: squamous-cell carcinoma + squamous-cell papilloma + adenoma + adenoma, bilateral + hepatocellular adenoma + hepatocellular carcino, dosed 88 weeks, study length 104 weeks) of the same compound?
The TD50 was 0.826 mg/kg/day.

And the TD50 (mouse, strain B6C3F1, females, site: forestomach, lesion: squamous-cell carcinoma + squamous-cell papilloma, dosed 88 weeks, study length 104 weeks)?
Its TD50 is 0.828 mg/kg/day.

And the TD50 (mouse, strain B6C3F1, females, site: forestomach, lesion: squamous-cell carcinoma, dosed 88 weeks, study length 104 weeks)?
Its TD50 is 0.97 mg/kg/day.

And the TD50 (mouse, strain B6C3F1, females, site: forestomach, lesion: squamous-cell papilloma, dosed 88 weeks, study length 104 weeks)?
Its TD50 is 1.64 mg/kg/day.

And the TD50 (mouse, strain B6C3F1, females, site: liver, lesion: hepatocellular adenoma + hepatoblastoma + hepatocellular carcinoma, dosed 88 weeks, study length 104 weeks)?
Its TD50 is 2.93 mg/kg/day.

And the TD50 (mouse, strain B6C3F1, females, site: liver, lesion: hepatocellular adenoma + hepatocellular carcinoma, dosed 88 weeks, study length 104 weeks)?
Its TD50 is 2.93 mg/kg/day.

And the TD50 (mouse, strain B6C3F1, females, site: liver, lesion: hepatocellular adenoma, dosed 88 weeks, study length 104 weeks)?
The TD50 was 3.33 mg/kg/day.

And the TD50 (mouse, strain B6C3F1, females, site: liver, lesion: hepatocellular carcinoma, dosed 88 weeks, study length 104 weeks)?
The TD50 was 28.7 mg/kg/day.

And the TD50 (mouse, strain B6C3F1, females, site: lung, lesion: alveolar/bronchiolar adenoma + alveolar/bronchiolar carcinoma, dosed 88 weeks, study length 104 weeks)?
The TD50 was 14.3 mg/kg/day.

And the TD50 (mouse, strain B6C3F1, females, site: lung, lesion: alveolar/bronchiolar adenoma, dosed 88 weeks, study length 104 weeks)?
Its TD50 is 14.6 mg/kg/day.

And the TD50 (mouse, strain B6C3F1, females, site: palate + pharynx + tongue, lesion: squamous-cell carcinoma + squamous-cell papilloma, dosed 88 weeks, study length 104 weeks)?
The TD50 was 47 mg/kg/day.

What about the TD50 (mouse, strain B6C3F1, females, site: palate + pharynx, lesion: squamous-cell carcinoma, dosed 88 weeks, study length 104 weeks) of the same compound?
Its TD50 is 154 mg/kg/day.

What about the TD50 (mouse, strain B6C3F1, females, site: uterus, lesion: endometrial stromal polyp, dosed 88 weeks, study length 104 weeks) of the same compound?
The TD50 was 22.9 mg/kg/day.

What about the TD50 (mouse, strain B6C3F1, females, site: uterus, lesion: endometrium, adenocarcinoma, dosed 88 weeks, study length 104 weeks) of the same compound?
Its TD50 is 8.47 mg/kg/day.

What about the TD50 (mouse, strain B6C3F1, females, site: uterus, lesion: endometrium, adenoma + endometrium, adenocarcinoma, dosed 88 weeks, study length 104 weeks) of the same compound?
Its TD50 is 6.62 mg/kg/day.

What about the TD50 (mouse, strain B6C3F1, females, site: uterus, lesion: endometrium, adenoma, dosed 88 weeks, study length 104 weeks) of the same compound?
Its TD50 is 34.9 mg/kg/day.

And the TD50 (mouse, strain B6C3F1, males, site: Harderian gland, lesion: adenoma, dosed 90 weeks, study length 104 weeks)?
The TD50 was 13.7 mg/kg/day.

What about the TD50 (mouse, strain B6C3F1, males, site: any site (literature study), lesion: several types, types named in the paper, dosed 90 weeks, study length 104 weeks) of the same compound?
The TD50 was 1.06 mg/kg/day.

And the TD50 (mouse, strain B6C3F1, males, site: forestomach + Harderian gland + liver, lesion: squamous-cell carcinoma + squamous-cell papilloma + adenoma + hepatocellular adenoma + hepatocellular carcinoma, dosed 90 weeks, study length 104 weeks)?
The TD50 was 0.996 mg/kg/day.

What about the TD50 (mouse, strain B6C3F1, males, site: forestomach, lesion: squamous-cell carcinoma + squamous-cell papilloma, dosed 90 weeks, study length 104 weeks) of the same compound?
The TD50 was 0.928 mg/kg/day.

And the TD50 (mouse, strain B6C3F1, males, site: forestomach, lesion: squamous-cell carcinoma, dosed 90 weeks, study length 104 weeks)?
Its TD50 is 1.34 mg/kg/day.

What about the TD50 (mouse, strain B6C3F1, males, site: forestomach, lesion: squamous-cell papilloma, dosed 90 weeks, study length 104 weeks) of the same compound?
The TD50 was 1.63 mg/kg/day.

What about the TD50 (mouse, strain B6C3F1, males, site: liver, lesion: hepatocellular adenoma + hepatoblastoma + hepatocellular carcinoma, dosed 90 weeks, study length 104 weeks) of the same compound?
Its TD50 is 2.13 mg/kg/day.

And the TD50 (mouse, strain B6C3F1, males, site: liver, lesion: hepatocellular adenoma + hepatocellular carcinoma, dosed 90 weeks, study length 104 weeks)?
The TD50 was 2.13 mg/kg/day.

What about the TD50 (mouse, strain B6C3F1, males, site: liver, lesion: hepatocellular adenoma, dosed 90 weeks, study length 104 weeks) of the same compound?
Its TD50 is 2.87 mg/kg/day.

What about the TD50 (mouse, strain B6C3F1, males, site: liver, lesion: hepatocellular carcinoma, dosed 90 weeks, study length 104 weeks) of the same compound?
The TD50 was 6.28 mg/kg/day.

What about the TD50 (mouse, strain B6C3F1, males, site: lung, lesion: alveolar/bronchiolar adenoma + alveolar/bronchiolar carcinoma, dosed 90 weeks, study length 104 weeks) of the same compound?
Its TD50 is 9.32 mg/kg/day.

What about the TD50 (mouse, strain B6C3F1, males, site: lung, lesion: alveolar/bronchiolar adenoma, dosed 90 weeks, study length 104 weeks) of the same compound?
Its TD50 is 11.2 mg/kg/day.

What about the TD50 (mouse, strain B6C3F1, males, site: tongue, lesion: squamous-cell papilloma, dosed 90 weeks, study length 104 weeks) of the same compound?
The TD50 was 454 mg/kg/day.

And the TD50 (rat, strain Fischer 344, females, site: Zymbal's gland, lesion: carcinoma, dosed 91 weeks, study length 105 weeks)?
Its TD50 is 59 mg/kg/day.

What about the TD50 (rat, strain Fischer 344, females, site: all sites, lesion: mononuclear-cell leukemia, dosed 91 weeks, study length 105 weeks) of the same compound?
The TD50 was 7.11 mg/kg/day.

What about the TD50 (rat, strain Fischer 344, females, site: any site (literature study), lesion: several types, types named in the paper, dosed 91 weeks, study length 105 weeks) of the same compound?
Its TD50 is 1.02 mg/kg/day.

And the TD50 (rat, strain Fischer 344, females, site: clitoral gland + forestomach + mammary gland + palate + pharynx + tongue + Zymbal's gland, lesion: adenoma + adenoma, bilateral + carcinoma + carcinoma, bilateral + squamous-cell carcinoma + squamous-cell papilloma + adenocarcinoma, dosed 91 weeks, study length 105 weeks)?
The TD50 was 1.07 mg/kg/day.

What about the TD50 (rat, strain Fischer 344, females, site: clitoral gland, lesion: adenoma + adenoma, bilateral + carcinoma + carcinoma, bilateral, dosed 91 weeks, study length 105 weeks) of the same compound?
Its TD50 is 3.58 mg/kg/day.

What about the TD50 (rat, strain Fischer 344, females, site: clitoral gland, lesion: adenoma + adenoma, bilateral, dosed 91 weeks, study length 105 weeks) of the same compound?
Its TD50 is 4.04 mg/kg/day.

And the TD50 (rat, strain Fischer 344, females, site: clitoral gland, lesion: carcinoma + carcinoma, bilateral, dosed 91 weeks, study length 105 weeks)?
Its TD50 is 49.5 mg/kg/day.

And the TD50 (rat, strain Fischer 344, females, site: colon + jejunum, lesion: adenocarcinoma, dosed 91 weeks, study length 105 weeks)?
The TD50 was 78.4 mg/kg/day.

And the TD50 (rat, strain Fischer 344, females, site: forestomach, lesion: squamous-cell carcinoma + squamous-cell papilloma, dosed 91 weeks, study length 105 weeks)?
Its TD50 is 1.64 mg/kg/day.

And the TD50 (rat, strain Fischer 344, females, site: forestomach, lesion: squamous-cell carcinoma, dosed 91 weeks, study length 105 weeks)?
The TD50 was 7.77 mg/kg/day.

And the TD50 (rat, strain Fischer 344, females, site: forestomach, lesion: squamous-cell papilloma, dosed 91 weeks, study length 105 weeks)?
The TD50 was 1.94 mg/kg/day.

And the TD50 (rat, strain Fischer 344, females, site: liver, lesion: hepatocellular adenoma + hepatoblastoma + hepatocellular carcinoma, dosed 91 weeks, study length 105 weeks)?
The TD50 was 81.4 mg/kg/day.

What about the TD50 (rat, strain Fischer 344, females, site: mammary gland, lesion: adenocarcinoma + adenoma + fibroadenoma, dosed 91 weeks, study length 105 weeks) of the same compound?
The TD50 was 1.98 mg/kg/day.

And the TD50 (rat, strain Fischer 344, females, site: mammary gland, lesion: adenocarcinoma + adenoma, dosed 91 weeks, study length 105 weeks)?
Its TD50 is 5.5 mg/kg/day.

And the TD50 (rat, strain Fischer 344, females, site: mammary gland, lesion: adenocarcinoma, dosed 91 weeks, study length 105 weeks)?
The TD50 was 5.91 mg/kg/day.

What about the TD50 (rat, strain Fischer 344, females, site: mammary gland, lesion: adenoma + fibroadenoma, dosed 91 weeks, study length 105 weeks) of the same compound?
Its TD50 is 3.32 mg/kg/day.
